From patent publication US9593136B2 (priority 2011, dated 2017)
pIC50: −log10 of the molar value. Converted amounts (≈) assume the structure as drawn. Where two headings read alike, the source gives them in different places.

Assays:
[1] = molecular target: M. tuberculosis Dxr (Mycobacterium tuberculosis, UniProt P9WNS1); test: biochemical; conditions: for IC50: IC50 (μM); for pIC50: Mtb Dxr IC50 (ug/mL)
[2] = tested on: Mtb H37Rv (ATCC 27294); test: microbe, parasite or virus in culture; type: cell-based, Mycobacterium tuberculosis; conditions: for MIC: Mycobacterium tuberculosis
[3] = tested on: B. anthracis; test: microbe, parasite or virus in culture; type: cell-based, Bacillus anthracis
[4] = tested on: E. faecalis; test: microbe, parasite or virus in culture; type: cell-based
[5] = tested on: MRSA NRS 70; test: microbe, parasite or virus in culture; type: cell-based, S. aureus
[6] = tested on: S. aureus (MSSA); test: microbe, parasite or virus in culture; type: cell-based
[7] = tested on: E. coli tolc; test: microbe, parasite or virus in culture; type: cell-based
[8] = tested on: E. coli k12; test: microbe, parasite or virus in culture; type: cell-based
[9] = tested on: Acinetobacter; test: microbe, parasite or virus in culture; type: cell-based
[10] = read-out: Mtb MIC (ug/mL) (7H9)
[11] = read-out: Mtb MIC (ug/mL) (GAST)

Chain of M. tuberculosis Dxr (P9WNS1 whole entry, looked up): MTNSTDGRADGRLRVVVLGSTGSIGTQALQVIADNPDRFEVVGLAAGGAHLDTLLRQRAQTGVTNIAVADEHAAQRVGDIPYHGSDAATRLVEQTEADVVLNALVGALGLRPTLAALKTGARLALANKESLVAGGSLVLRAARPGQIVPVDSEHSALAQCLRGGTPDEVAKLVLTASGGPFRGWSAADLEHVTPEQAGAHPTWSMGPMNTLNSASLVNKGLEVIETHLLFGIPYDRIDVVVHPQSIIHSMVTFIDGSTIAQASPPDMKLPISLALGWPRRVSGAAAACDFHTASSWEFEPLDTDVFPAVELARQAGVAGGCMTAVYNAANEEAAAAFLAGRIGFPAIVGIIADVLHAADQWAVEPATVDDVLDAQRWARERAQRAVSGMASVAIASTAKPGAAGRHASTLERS

CC(=O)N(CCCP(=O)(O)O)OCCc1ccccc1 [Compound 3, Sodium hydrogen 3-(N-(phenethyloxy)acetamido)propylphosphonate]
IC50 [1]: 96.4 µM

CC(=O)N(CCCP(=O)(O)O)OCCCc1ccccc1 [Compound 4, Sodium hydrogen 3-(N-(3-phenylpropoxy)acetamido)propylphosphonate]
remaining activity at 100 µg/mL ([1]; read-out: % Remaining Enzyme Activity at 100 μg/mL): 100%

CC(=O)N(CCCP(=O)(O)O)OCc1ccc(C(C)C)cc1 [Compound 5, Sodium hydrogen 3-(N-(4-isopropylbenzyloxy)acetamido)propylphosphonate]
IC50 [1]: 50.6 µM

CCOP(=O)(CCN(O)C=O)OCC [Compound 5b]
MIC 7H9 [2]: >500 µg/mL
MIC GAST/Fe [2]: >500 µg/mL

CCOP(=O)(CCCN(O)C=O)OCC [Compound 5c]
MIC 7H9 [2]: 250 µg/mL (≈ 1050 µM)

CCOP(=O)(CCN(O)C(C)=O)OCC [Compound 5f]
MIC 7H9 [2]: >500 µg/mL
MIC GAST/Fe [2]: >500 µg/mL

CC(=O)N(CCCP(=O)(O)O)OCC1CCCCC1 [Compound 6, Sodium hydrogen 3-(N-(cyclohexylmethoxy)acetamido)propylphosphonate]
IC50 [1]: 198 µM

O=C(Cc1ccccc1)N(O)CCCP(=O)(O)O [Compound 7, Sodium hydrogen 3-(N-hydroxy-2-phenylacetamido)propylphosphonate]
IC50 [1]: 7.5 µM

O=C(CCCc1ccccc1)N(O)CCCP(=O)(O)O [Compound 8, Sodium hydrogen 3-(N-hydroxy-4-phenylbutanamido)propylphosphonate]
IC50 [1]: 3.1 µM

O=C(C1CCCCC1)N(O)CCCP(=O)(O)O [Compound 9, Sodium hydrogen 3-(N-hydroxycyclohexanecarboxamido)propylphosphonate]
IC50 [1]: 57.8 µM

CCOP(=O)(CCCN(O)C(=O)c1ccccc1)OCC [Compound 9a]
MIC ([2]; read-out: MIC 7H9 (μg/mL)): > 500 µg/mL
MIC ([2]; read-out: MIC GAST/Fe (μg/mL)): 31.2 µg/mL (≈ 99.1 µM)

CCOP(=O)(CCCN(O)C=O)OCC [Compound 10, Diethyl fosmidomycin]
MIC B. anthracis [3]: >200 µg/mL
MIC E. faecalis [4]: >200 µg/mL
MIC M. tuberculosis (H37Rv) [2]: 400 µg/mL (≈ 1670 µM)
MIC S. aureus (MRSA) [5]: >200 µg/mL
MIC S. aureus (MSSA) [6]: >200 µg/mL
MIC E. coli tolc [7]: >200 µg/mL
MIC E. coli k12 [8]: >200 µg/mL
MIC Acinetobacter [9]: >200 µg/mL

CCCCCCOP(=O)(CCCN(O)C(C)=O)OCCCCCC [Compound 21]
MIC M. tuberculosis (H37Rv) [2]: 100 µg/mL (≈ 274 µM)

CCOC(=O)OC(C)OP(=O)(CCCN(O)C(C)=O)OC(C)OC(=O)OCC (stereo not drawn) [Compound 22]
MIC B. anthracis [3]: >200 µg/mL
MIC E. faecalis [4]: >200 µg/mL
MIC M. tuberculosis (H37Rv) [2]: 400 µg/mL (≈ 932 µM)
MIC S. aureus (MRSA) [5]: >200 µg/mL
MIC S. aureus (MSSA) [6]: >200 µg/mL
MIC E. coli tolc [7]: 200 µg/mL (≈ 466 µM)
MIC E. coli k12 [8]: >200 µg/mL
MIC Acinetobacter [9]: >200 µg/mL

CC(=O)N(O)CCCP(=O)(OCC(=O)OC(C)(C)C)OCC(=O)OC(C)(C)C [Compound 23]
MIC B. anthracis [3]: >200 µg/mL
MIC E. faecalis [4]: >200 µg/mL
MIC M. tuberculosis (H37Rv) [2]: 400 µg/mL (≈ 940 µM)
MIC S. aureus (MRSA) [5]: 25 µg/mL (≈ 58.8 µM)
MIC S. aureus (MSSA) [6]: 100 µg/mL (≈ 235 µM)
MIC E. coli tolc [7]: >200 µg/mL
MIC E. coli k12 [8]: >200 µg/mL
MIC Acinetobacter [9]: >200 µg/mL

CC(=O)N(O)CCCP(=O)(OCOC(=O)C(C)(C)C)OCOC(=O)C(C)(C)C [Compound 24]
MIC B. anthracis [3]: 200 µg/mL (≈ 470 µM)
MIC E. faecalis [4]: >200 µg/mL
MIC M. tuberculosis (H37Rv) [2]: 50 to 100 µg/mL
antitubercular activity (in words) [2]: better antitubercular activity
MIC S. aureus (MRSA) [5]: 50 µg/mL (≈ 118 µM)
MIC S. aureus (MSSA) [6]: 100 µg/mL (≈ 235 µM)
MIC E. coli tolc [7]: 100 µg/mL (≈ 235 µM)
MIC E. coli k12 [8]: >200 µg/mL
MIC Acinetobacter [9]: >200 µg/mL

CC(=O)N(O)CCCP(=O)(OC(C)OC(=O)OC(C)(C)C)OC(C)OC(=O)OC(C)(C)C (stereo not drawn) [Compound 25]
MIC B. anthracis [3]: 200 µg/mL (≈ 412 µM)
MIC E. faecalis [4]: >200 µg/mL
MIC M. tuberculosis (H37Rv) [2]: 400 µg/mL (≈ 824 µM)
MIC S. aureus (MRSA) [5]: 50 µg/mL (≈ 103 µM)
MIC S. aureus (MSSA) [6]: 100 µg/mL (≈ 206 µM)
MIC E. coli tolc [7]: >200 µg/mL
MIC E. coli k12 [8]: >200 µg/mL
MIC Acinetobacter [9]: >200 µg/mL

CC(=O)N(O)CCCP(=O)(OCOC(=O)c1ccccc1)OCOC(=O)c1ccccc1 [Compound 26]
MIC B. anthracis [3]: 100 µg/mL (≈ 215 µM)
MIC E. faecalis [4]: >200 µg/mL
MIC M. tuberculosis (H37Rv) [2]: 25 to 100 µg/mL
antitubercular activity (in words) [2]: better antitubercular activity
MIC S. aureus (MRSA) [5]: >200 µg/mL
MIC S. aureus (MSSA) [6]: >200 µg/mL
MIC E. coli tolc [7]: 50 µg/mL (≈ 107 µM)
MIC E. coli k12 [8]: >200 µg/mL
MIC Acinetobacter [9]: 200 µg/mL (≈ 430 µM)

CCOP(=O)(CCCN(O)C(=O)C1CCCCC1)OCC [ERJ 112]
MIC [2, 10]: > 200 µg/mL
MIC [2, 11]: 100 µg/mL (≈ 311 µM)

O=C(C1CCCCC1)N(O)CCCP(=O)([O-])O.[Na+] [ERJ 116]
pIC50 [1]: 4.24
MIC [2, 10]: > 200 µg/mL
MIC [2, 11]: > 200 µg/mL

CCOP(=O)(CCCN(O)C(=O)C1CC1)OCC [ERJ 119]
Mtb MIC (ug/mL) (7H9) [2]: >200 (7H9) >200 (GAST) ug/mL
Mtb MIC (ug/mL) (GAST) [2]: >200 (7H9) >200 (GAST) ug/mL

O=C(C1CC1)N(O)CCCP(=O)([O-])O.[Na+] [ERJ 123]
MIC ([2]; read-out: Mtb MIC (ug/mL)): > 400 µg/mL

CCOP(=O)(CCCN(O)C(C)=O)OCC [GSJ21]
Mtb MIC [2]: >200 µg/mL

CC(=O)N(O)CCCCP(=O)(O)O [GSJ54]
pIC50 [1]: 4.88
MIC ([2]; read-out: Mtb MIC (ug/mL)): > 200 µg/mL

CCOP(=O)(CCCN(OCc1ccc(C(C)C)cc1)C(C)=O)OCC [GSJ70]
MIC [2, 10]: 400 µg/mL (≈ 1040 µM)
MIC [2, 11]: 200 µg/mL (≈ 519 µM)

CCOP(=O)(CCCN(OCC1CCCCC1)C(C)=O)OCC [GSJ71]
MIC [2, 10]: ≥ 400 µg/mL
MIC [2, 11]: 200 to 400 µg/mL (≈ 572 to 1140 µM)

CCOP(=O)(CCCN(OCc1ccc(-c2ccccc2)cc1)C(C)=O)OCC [GSJ72]
MIC [2, 10]: 200 µg/mL (≈ 477 µM)
MIC [2, 11]: 100 µg/mL (≈ 238 µM)

CCOP(=O)(CCCN(OCc1ccc2ccccc2c1)C(C)=O)OCC [GSJ73]
MIC [2, 10]: 200 µg/mL (≈ 508 µM)
MIC [2, 11]: 100 µg/mL (≈ 254 µM)
